Our source for the CC50 and EC50 values is patent US10646469B2, “Substituted indole derivatives as dengue viral replication inhibitors” (Janssen Pharmaceuticals, Inc., priority 2016, dated 2020).

A short description of data set [1]: Toxicity on the same plates (ATPlite cell viability). Conditions: African green monkey, CC50, Vero cells, same plates as DENV-2 antiviral assay. (In general: Cellular ATP, detected with luciferase, serves as a proxy for viable cell number.)
A further data set relates to DENV-2 16681 strain. The data set can be described thus: DENV-2 antiviral assay (eGFP-labeled virus in Vero cells). Format: cell-based, Dengue virus. As to conditions: DENV-2 16681 eGFP, MOI 0.5, 3 days. The method, then: The antiviral activity of all the compounds of the invention was tested against the DENV-2 16681 strain which was labeled with enhanced green fluorescent protein (eGPF). The culture medium consists of minimal essential medium supplemented with 2% of heat-inactivated fetal calf serum, 0.04% gentamycin (50 mg/mL) and 2 mM of L-glutamine. Vero cells, obtained from ECACC, were suspended in culture medium and 25 μL was added to 384-well plates (2500 cells/well), which already contain the antiviral compounds. Typically, these plates contain a 5-fold serial dilution of 9 dilution steps of the test compound at 200 times the final concentration in 100% DMSO (200 nL). […] Finally, each plate contains wells which are assigned as virus controls (containing cells and virus in the absence of compound), cell controls (containing cells in the absence of virus and compound) and medium controls (containing medium in the absence of cells, virus and compounds). To the wells assigned as medium control, 25 μL of culture medium was added instead of Vero cells. Once the cells were added to the plates, the plates were incubated for 30 minutes at room temperature to allow the cells to distribute evenly within the wells. Next, the plates were incubated in a fully humidified incubator (37° C., 5% CO2) until the next day. Then, DENV-2 strain 16681, labeled with eGFP, was added at a multiplicity of infection (MOI) of 0.5. Therefore, 15 μL of virus suspension was added to all the wells containing test compound and to the wells assigned as virus control. In parallel, 15 μL of culture medium was added to the medium and cell controls. Next, the plates were incubated for 3 days in a fully humidified incubator (37° C., 5% CO2). At the day of the read out, the eGFP fluorescence was measured using an automated fluorescence microscope at 488 nm (blue laser). Using an in-house LIMS system, inhibition dose response curves for each compound were calculated and the half maximal effective concentration (EC50) was determined. Therefore, the percent inhibition (I) for every test concentration is calculated using the following formula: I=100*([…])/(SVC−SCC); ST, SCC and SVC are the amount of eGFP signal in the test compound, cell control and virus control wells, respectively. The EC50 represents the concentration of a compound at which the virus replication is inhibited with 50%, as measured by a 50% reduction of the eGFP fluorescent intensity compared to the virus control. The EC50 is calculated using linear interpolation (Table 1).

Another data set has as its system Vero cells. The data set can be described thus: Toxicity on the same plates (ATPlite cell viability). As to conditions: Vero cells, same plates as DENV-2 antiviral assay.
Setting [2] is: Dengue virus, DENV2, Vero, 72 h.

The CC50 is the concentration giving 50% cytotoxicity. The low end stands for greater toxicity to the cells, the high end for lower toxicity to the cells. As a reminder, the EC50 is the concentration needed to bring the measured effect to its halfway point. A higher EC50 goes with a less potent agent. In turn, `COc1cc(NC(C(=O)c2c[nH]c3cc(F)c(C(F)(F)F)cc23)c2ccc(F)cc2OC)cc(OCCO)c1` (racemic) [Compound 3, 2-(4-fluoro-2-methoxyphenyl)-1-(6-fluoro-5-(trifluoromethyl)-1H-indol-3-yl)-2-((3-(2-hydroxyethoxy)-5-methoxyphenyl)amino)ethanone] registered a CC50 in data set [1] of 3 µM. Also, in the data set with DENV-2 16681 strain (setting [2]), the response was half-maximal at 0.00099 µM (EC50).

In data set [1], `COc1cc(NC(C(=O)c2c[nH]c3c(C)cc(C(F)(F)F)cc23)c2ccc(F)cc2OC)cc(OCCO)c1` (racemic) [Compound 4, 2-(4-fluoro-2-methoxyphenyl)-2-((3-(2-hydroxyethoxy)-5-methoxyphenyl)amino)-1-(7-methyl-5-(trifluoromethyl)-1H-indol-3-yl)ethanone] had a CC50 of 6.1 µM. Moreover, in the data set on DENV-2 16681 strain (setting [2]), a half-maximal response (EC50) required 0.00062 µM.

As to `COc1cc(NC(C(=O)c2c[nH]c3ccc(OC(F)(F)F)cc23)c2ccc(F)cc2OC)cc(OCCO)c1` (racemic) [Compound 5, 2-(4-fluoro-2-methoxyphenyl)-2-((3-(2-hydroxyethoxy)-5-methoxyphenyl)amino)-1-(5-(trifluoromethoxy)-1H-indol-3-yl)ethanone], the CC50 in data set [1] is 4.5 µM. In the data set with DENV-2 16681 strain (setting [2]), this compound registered a 50% effective concentration (EC50) of 0.0005 µM.

The compound `COc1cc(NC(C(=O)c2c[nH]c3c(C)cc(OC(F)(F)F)cc23)c2ccc(F)cc2OC)cc(OCCO)c1` (racemic) [Compound 8, 2-(4-fluoro-2-methoxyphenyl)-2-((3-(2-hydroxyethoxy)-5-methoxyphenyl)amino)-1-(7-methyl-5-(trifluoromethoxy)-1H-indol-3-yl)ethanone] showed a CC50 in data set [1] of 4.7 µM. The 50% effective concentration (EC50) in the data set with DENV-2 16681 strain (setting [2]) turned out to be 0.00041 µM.

In turn, `COc1cc(NC(C(=O)c2c[nH]c3ccc(C(F)(F)F)cc23)c2ccc(Cl)cc2OC)cc(OCCO)c1` (racemic) [Compound 9, 2-(4-chloro-2-methoxyphenyl)-2-((3-(2-hydroxyethoxy)-5-methoxyphenyl)amino)-1-(5-(trifluoromethyl)-1H-indol-3-yl)ethanone] showed a CC50 in data set [1] of 2.5 µM. In the data set with DENV-2 16681 strain (setting [2]), this compound displayed an EC50 of 0.00029 µM.

In data set [1], `COc1cc(NC(C(=O)c2c[nH]c3cc(OC)c(C(F)(F)F)cc23)c2ccc(Cl)cc2OC)cc(OCCO)c1` (racemic) [Compound 10, 2-(4-chloro-2-methoxyphenyl)-2-((3-(2-hydroxyethoxy)-5-methoxyphenyl)amino)-1-(6-methoxy-5-(trifluoromethyl)-1H-indol-3-yl)ethanone] displayed a cytotoxic concentration (CC50) of 3.2 µM. In addition, the concentration for a half-maximal effect (EC50) with DENV-2 16681 strain (setting [2]) turned out to be 0.00027 µM.

In data set [1], `COc1cc(NC(C(=O)c2c[nH]c3cc(OC)c(OC(F)(F)F)cc23)c2ccc(Cl)cc2OC)cc(OCCO)c1` (racemic) [Compound 14, 2-(4-chloro-2-methoxyphenyl)-2-((3-(2-hydroxyethoxy)-5-methoxyphenyl)amino)-1-(6-methoxy-5-(trifluoromethoxy)-1H-indol-3-yl)ethanone] came in with a 50% cytotoxic concentration (CC50) of 3.5 µM. Besides, in the data set on DENV-2 16681 strain (setting [2]), a half-maximal effect (EC50) was put at 0.00034 µM.

The compound `COc1cc(NC(C(=O)c2c[nH]c3ccc(OC(F)(F)F)cc23)c2ccc(F)cc2OC)cc(OCCO)c1` (single isomer, unassigned) [Compound 5A, 2-(4-fluoro-2-methoxyphenyl)-2-((3-(2-hydroxyethoxy)-5-methoxyphenyl)amino)-1-(5-(trifluoromethoxy)-1H-indol-3-yl)ethanone] registered a CC50 in data set [1] of 5.4 µM. This compound also displayed an EC50 in the data set with DENV-2 16681 strain of 0.03 µM.

As for `COc1cc(NC(C(=O)c2c[nH]c3ccc(C(F)(F)F)cc23)c2ccc(Cl)cc2OC)cc(OCCO)c1` (single isomer, unassigned) [Compound 9A, 2-(4-chloro-2-methoxyphenyl)-2-((3-(2-hydroxyethoxy)-5-methoxyphenyl)amino)-1-(5-(trifluoromethyl)-1H-indol-3-yl)ethanone], in data set [1], half-maximal cytotoxicity (CC50) was put at 3.5 µM. Besides, the half-maximal effective concentration (EC50) with DENV-2 16681 strain worked out at 0.012 µM.

In the data set with Vero cells, `COc1cc(NC(C(=O)c2c[nH]c3ccc(OC(F)(F)F)cc23)c2ccc(Cl)cc2OC)cc(OCCO)c1` (single isomer, unassigned) [Compound 13B, 2-(4-chloro-2-methoxyphenyl)-2-((3-(2-hydroxyethoxy)-5-methoxyphenyl)amino)-1-(5-(trifluoromethoxy)-1H-indol-3-yl)ethanone] returned a CC50 of 5.8 µM. The compound also came in with an EC50 in the data set on DENV-2 16681 strain of 0.0072 µM.

Regarding `COc1cc(NC(C(=O)c2c[nH]c3cc(OC)c(OC(F)(F)F)cc23)c2ccc(Cl)cc2OC)cc(OCCO)c1` (single isomer, unassigned) [Compound 14B, 2-(4-chloro-2-methoxyphenyl)-2-((3-(2-hydroxyethoxy)-5-methoxyphenyl)amino)-1-(6-methoxy-5-(trifluoromethoxy)-1H-indol-3-yl)ethanone], the midpoint of cytotoxicity with Vero cells, the CC50, lay at 5.4 µM. In addition, the EC50 in the data set on DENV-2 16681 strain stood at 0.0072 µM.

In data set [1], `COc1cc(NC(C(=O)c2c[nH]c3cc(F)c(OC(F)(F)F)cc23)c2ccc(Cl)cc2OC)cc(OCCO)c1` (single isomer, unassigned) [Compound 15A, 2-(4-chloro-2-methoxyphenyl)-1-(6-fluoro-5-(trifluoromethoxy)-1H-indol-3-yl)-2-((3-(2-hydroxyethoxy)-5-methoxyphenyl)amino)ethanone] yielded a half-maximal cytotoxic concentration (CC50) of 3.8 µM. Also, in the data set on DENV-2 16681 strain, the concentration for a half-maximal effect (EC50) turned out to be 0.0099 µM.

In the data set on Vero cells, `COc1cc(NC(C(=O)c2c[nH]c3c(C)cc(OC(F)(F)F)cc23)c2ccc(Cl)cc2OC)cc(OCCO)c1` (single isomer, unassigned) [Compound 16B, 2-(4-chloro-2-methoxyphenyl)-2-((3-(2-hydroxyethoxy)-5-methoxyphenyl)amino)-1-(7-methyl-5-(trifluoromethoxy)-1H-indol-3-yl)ethanone] came in with a CC50 of 3.6 µM. In addition, the EC50 in the data set on DENV-2 16681 strain is 0.015 µM.
